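96-well plates; 48 h exposure; 5 concentrations. Endpoints by linear interpolation between flanking doses. Not reached: highest tested concentration assigned. The concentration for full growth arrest is given as TGI.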
How the values were obtained:
Experiment in all cases: NCI tumour cell line growth inhibition, 48 h
CCRF-CEM leukemia = tested on: CCRF-CEM leukemia
SW-620 colon = tested on: SW-620 colon
NCI-H226 lung = tested on: NCI-H226 lung
ACHN renal = tested on: ACHN renal
DMS 114 small cell lung = tested on: DMS 114 small cell lung
XF 498 CNS = tested on: XF 498 CNS
SF-539 CNS = tested on: SF-539 CNS
MCF7 breast = tested on: MCF7 breast
M14 melanoma = tested on: M14 melanoma
MDA-MB-231 breast = tested on: MDA-MB-231 breast
A549 NSCLC = tested on: A549 NSCLC
U251 CNS = tested on: U251 CNS
COLO 205 colon = tested on: COLO 205 colon
SK-MEL-2 melanoma = tested on: SK-MEL-2 melanoma
SF-268 CNS = tested on: SF-268 CNS
K-562 leukemia = tested on: K-562 leukemia
NCI/ADR-RES ovarian = tested on: NCI/ADR-RES ovarian
NCI-H23 lung = tested on: NCI-H23 lung
786-0 renal = tested on: 786-0 renal
DU-145 prostate = tested on: DU-145 prostate
HT29 colon = tested on: HT29 colon
NCI-H460 lung = tested on: NCI-H460 lung
HOP-92 NSCLC = tested on: HOP-92 NSCLC
OVCAR-8 ovarian = tested on: OVCAR-8 ovarian
TK-10 renal = tested on: TK-10 renal
DLD-1 colon = tested on: DLD-1 colon
SK-MEL-5 melanoma = tested on: SK-MEL-5 melanoma
HOP-62 NSCLC = tested on: HOP-62 NSCLC
LXFL 529 NSCLC = tested on: LXFL 529 NSCLC
SN12C renal = tested on: SN12C renal
OVCAR-5 ovarian = tested on: OVCAR-5 ovarian
MALME-3M melanoma = tested on: MALME-3M melanoma
SF-295 CNS = tested on: SF-295 CNS
HL-60(TB) leukemia = tested on: HL-60(TB) leukemia
BT-549 breast = tested on: BT-549 breast
SK-MEL-28 melanoma = tested on: SK-MEL-28 melanoma
SK-OV-3 ovarian = tested on: SK-OV-3 ovarian
SNB-75 CNS = tested on: SNB-75 CNS
LOX IMVI melanoma = tested on: LOX IMVI melanoma
IGROV1 ovarian = tested on: IGROV1 ovarian
MOLT-4 leukemia = tested on: MOLT-4 leukemia
OVCAR-3 ovarian = tested on: OVCAR-3 ovarian
KM20L2 colon = tested on: KM20L2 colon
SNB-19 CNS = tested on: SNB-19 CNS
RPMI-8226 leukemia = tested on: RPMI-8226 leukemia
SR leukemia = tested on: SR leukemia
HCT-15 colon = tested on: HCT-15 colon
HCC-2998 colon = tested on: HCC-2998 colon
MDA-MB-435 = tested on: MDA-MB-435
T-47D breast = tested on: T-47D breast
KM12 colon = tested on: KM12 colon
A498 renal = tested on: A498 renal
UACC-62 melanoma = tested on: UACC-62 melanoma
RXF 393 renal = tested on: RXF 393 renal
UO-31 renal = tested on: UO-31 renal
HS 578T breast = tested on: HS 578T breast
OVCAR-4 ovarian = tested on: OVCAR-4 ovarian
HCT-116 colon = tested on: HCT-116 colon
NCI-H522 lung = tested on: NCI-H522 lung
EKVX NSCLC = tested on: EKVX NSCLC
CAKI-1 renal = tested on: CAKI-1 renal
PC-3 prostate = tested on: PC-3 prostate
UACC-257 melanoma = tested on: UACC-257 melanoma
MDA-N = tested on: MDA-N
RXF-631 renal = tested on: RXF-631 renal
DMS 273 small cell lung = tested on: DMS 273 small cell lung
M19-MEL melanoma = tested on: M19-MEL melanoma
SNB-78 CNS = tested on: SNB-78 CNS

Compound: CC1c2ccccc2Cn2cc3c(c21)C(=O)c1cccc(OP(=O)(O)OCc2ccccc2)c1C3=O (stereo not drawn)
- TGI (CCRF-CEM leukemia): > 100 µM
- TGI (SW-620 colon): > 100 µM
- TGI (NCI-H226 lung): > 100 µM
- TGI (ACHN renal): > 100 µM
- TGI (DMS 114 small cell lung): > 100 µM
- TGI (XF 498 CNS): > 100 µM
- TGI (SF-539 CNS): > 100 µM
- TGI (MCF7 breast): > 100 µM
- TGI (M14 melanoma): > 100 µM
- TGI (MDA-MB-231 breast): > 100 µM
- TGI (A549 NSCLC): > 100 µM
- TGI (U251 CNS): > 100 µM
- TGI (COLO 205 colon): > 100 µM
- TGI (SK-MEL-2 melanoma): > 100 µM
- TGI (SF-268 CNS): > 100 µM
- TGI (K-562 leukemia): > 100 µM
- TGI (NCI/ADR-RES ovarian): > 100 µM
- TGI (NCI-H23 lung): > 100 µM
- TGI (786-0 renal): > 100 µM
- TGI (DU-145 prostate): > 100 µM
- TGI (HT29 colon): > 100 µM
- TGI (NCI-H460 lung): > 100 µM
- TGI (HOP-92 NSCLC): > 100 µM
- TGI (OVCAR-8 ovarian): > 100 µM
- TGI (TK-10 renal): > 100 µM
- TGI (DLD-1 colon): > 100 µM
- TGI (SK-MEL-5 melanoma): > 100 µM
- TGI (HOP-62 NSCLC): > 100 µM
- TGI (LXFL 529 NSCLC): > 100 µM
- TGI (SN12C renal): > 100 µM
- TGI (OVCAR-5 ovarian): > 100 µM
- TGI (MALME-3M melanoma): > 100 µM
- TGI (SF-295 CNS): > 100 µM
- TGI (HL-60(TB) leukemia): > 77.3 µM
- TGI (BT-549 breast): > 100 µM
- TGI (SK-MEL-28 melanoma): > 100 µM
- TGI (SK-OV-3 ovarian): > 100 µM
- TGI (SNB-75 CNS): > 100 µM
- TGI (LOX IMVI melanoma): > 100 µM
- TGI (IGROV1 ovarian): > 100 µM
- TGI (MOLT-4 leukemia): > 100 µM
- TGI (OVCAR-3 ovarian): > 100 µM
- TGI (KM20L2 colon): > 100 µM
- TGI (SNB-19 CNS): > 100 µM
- TGI (RPMI-8226 leukemia): > 100 µM
- TGI (SR leukemia): > 100 µM
- TGI (HCT-15 colon): > 100 µM
- TGI (HCC-2998 colon): > 100 µM
- TGI (MDA-MB-435): > 100 µM
- TGI (T-47D breast): > 100 µM
- TGI (KM12 colon): > 100 µM
- TGI (A498 renal): > 100 µM
- TGI (UACC-62 melanoma): > 100 µM
- TGI (RXF 393 renal): > 100 µM
- TGI (UO-31 renal): > 100 µM
- TGI (HS 578T breast): > 100 µM
- TGI (OVCAR-4 ovarian): > 100 µM
- TGI (HCT-116 colon): > 100 µM
- TGI (NCI-H522 lung): > 100 µM
- TGI (EKVX NSCLC): > 100 µM
- TGI (CAKI-1 renal): > 100 µM
- TGI (PC-3 prostate): > 100 µM
- TGI (UACC-257 melanoma): > 100 µM
- TGI (MDA-N): > 100 µM
- TGI (RXF-631 renal): > 100 µM

Compound: O=c1c2ccccc2nc(-c2ccccc2Cl)n1NCC1(O)OCC(O)C(O)C1O (stereo not drawn)
- TGI (CCRF-CEM leukemia): > 100 µM
- TGI (SW-620 colon): > 100 µM
- TGI (ACHN renal): > 100 µM
- TGI (DMS 114 small cell lung): > 100 µM
- TGI (XF 498 CNS): > 100 µM
- TGI (SF-539 CNS): > 100 µM
- TGI (M14 melanoma): > 100 µM
- TGI (A549 NSCLC): > 100 µM
- TGI (U251 CNS): > 100 µM
- TGI (COLO 205 colon): > 100 µM
- TGI (SK-MEL-2 melanoma): > 100 µM
- TGI (SF-268 CNS): > 100 µM
- TGI (K-562 leukemia): > 100 µM
- TGI (NCI-H23 lung): > 100 µM
- TGI (DMS 273 small cell lung): > 100 µM
- TGI (786-0 renal): > 100 µM
- TGI (HT29 colon): > 100 µM
- TGI (NCI-H460 lung): > 100 µM
- TGI (OVCAR-8 ovarian): > 100 µM
- TGI (TK-10 renal): > 100 µM
- TGI (SK-MEL-5 melanoma): > 100 µM
- TGI (LXFL 529 NSCLC): > 100 µM
- TGI (SN12C renal): > 100 µM
- TGI (OVCAR-5 ovarian): > 100 µM
- TGI (MALME-3M melanoma): > 100 µM
- TGI (SF-295 CNS): > 100 µM
- TGI (M19-MEL melanoma): > 100 µM
- TGI (HL-60(TB) leukemia): > 100 µM
- TGI (SK-MEL-28 melanoma): > 100 µM
- TGI (SK-OV-3 ovarian): > 100 µM
- TGI (SNB-75 CNS): > 100 µM
- TGI (LOX IMVI melanoma): > 100 µM
- TGI (MOLT-4 leukemia): > 100 µM
- TGI (OVCAR-3 ovarian): > 100 µM
- TGI (KM20L2 colon): > 100 µM
- TGI (SNB-19 CNS): > 100 µM
- TGI (RPMI-8226 leukemia): > 100 µM
- TGI (SR leukemia): > 100 µM
- TGI (HCT-15 colon): > 100 µM
- TGI (KM12 colon): > 100 µM
- TGI (A498 renal): > 100 µM
- TGI (UACC-62 melanoma): > 100 µM
- TGI (RXF 393 renal): > 100 µM
- TGI (UO-31 renal): > 100 µM
- TGI (OVCAR-4 ovarian): > 100 µM
- TGI (HCT-116 colon): > 100 µM
- TGI (NCI-H522 lung): > 100 µM
- TGI (EKVX NSCLC): > 100 µM
- TGI (SNB-78 CNS): > 100 µM
- TGI (CAKI-1 renal): > 100 µM
- TGI (UACC-257 melanoma): > 100 µM
- TGI (RXF-631 renal): > 100 µM

Compound: CNS(=O)(=O)NN(C)S(=O)(=O)c1ccc(OC)cc1
- TGI (CCRF-CEM leukemia): > 100 µM
- TGI (SW-620 colon): > 100 µM
- TGI (NCI-H226 lung): > 100 µM
- TGI (ACHN renal): > 100 µM
- TGI (DMS 114 small cell lung): > 100 µM
- TGI (XF 498 CNS): > 100 µM
- TGI (SF-539 CNS): > 100 µM
- TGI (M14 melanoma): > 100 µM
- TGI (A549 NSCLC): > 100 µM
- TGI (U251 CNS): > 100 µM
- TGI (COLO 205 colon): > 100 µM
- TGI (SK-MEL-2 melanoma): > 100 µM
- TGI (SF-268 CNS): > 100 µM
- TGI (K-562 leukemia): > 100 µM
- TGI (NCI-H23 lung): > 100 µM
- TGI (DMS 273 small cell lung): > 100 µM
- TGI (786-0 renal): > 100 µM
- TGI (HT29 colon): > 100 µM
- TGI (OVCAR-8 ovarian): > 100 µM
- TGI (TK-10 renal): > 100 µM
- TGI (DLD-1 colon): > 100 µM
- TGI (SK-MEL-5 melanoma): > 100 µM
- TGI (HOP-62 NSCLC): > 100 µM
- TGI (LXFL 529 NSCLC): > 100 µM
- TGI (SN12C renal): > 100 µM
- TGI (MALME-3M melanoma): > 100 µM
- TGI (SF-295 CNS): > 100 µM
- TGI (M19-MEL melanoma): > 100 µM
- TGI (HL-60(TB) leukemia): > 100 µM
- TGI (SNB-75 CNS): > 100 µM
- TGI (LOX IMVI melanoma): > 100 µM
- TGI (IGROV1 ovarian): > 100 µM
- TGI (MOLT-4 leukemia): > 100 µM
- TGI (KM20L2 colon): > 100 µM
- TGI (SNB-19 CNS): > 100 µM
- TGI (RPMI-8226 leukemia): > 100 µM
- TGI (SR leukemia): > 100 µM
- TGI (HCT-15 colon): > 100 µM
- TGI (HCC-2998 colon): > 100 µM
- TGI (KM12 colon): > 100 µM
- TGI (A498 renal): > 100 µM
- TGI (UACC-62 melanoma): > 100 µM
- TGI (RXF 393 renal): > 100 µM
- TGI (UO-31 renal): > 100 µM
- TGI (OVCAR-4 ovarian): > 100 µM
- TGI (HCT-116 colon): > 100 µM
- TGI (NCI-H522 lung): > 100 µM
- TGI (EKVX NSCLC): > 100 µM
- TGI (CAKI-1 renal): > 100 µM
- TGI (UACC-257 melanoma): > 100 µM
- TGI (RXF-631 renal): > 100 µM
